Measured values as given in publication PMC11107383, “Integrating Reinforcement Learning and Monte Carlo Tree Search for enhanced neoantigen vaccine design” (Briefings in Bioinformatics, 2024).
“Also recorded” adds a separate entry of the source. Ends that are not written are not given here.

Tests used:
[1] = target: T1, HLA-A^*11:01 (Homo sapiens, UniProt P04439, A114D/D185E/E176A/F33Y/L180Q/S129P/T187R); test: Peptide competitive binding assay (FITC-labeled reference peptide KVFPKALINK, flow cytometry) in HMy2.CIR cells expressing HLA-A^*11:01; conditions: 24 h, 4°C; for shift in the fluorescence (flow cytometry): FITC-labeled reference peptide displaced; for 5 μM Inhibition (%): competitor 5 μM
[2] = system: T-cell responses; conditions: IFN-γ ELISPOT; HLA-A^*11:01 pair; cited from earlier work
Excerpt: (§1) A peptide sequence, ELQRREVYK, originating from the E6 oncoprotein of HPV type 52, has been recognized as an HLA-A^*11:01-restricted peptide through an in vitro peptide-binding assay. […] Considering the high prevalence of HLA-A^*11:01 allele (21.143%) in the Chinese pop ...

[3] = target: T1, HLA-A^*11:01; conditions: in vitro peptide-binding assay; cited from earlier work
Excerpt: as §1

[4] = FITC-labeled reference peptide KVFPKALINK 300 nM, flow cytometry

Sequence	shift in the fluorescence (flow cytometry) [1]	5 μM Inhibition (%) [1, 4]	T-cell response [2]	HLA restriction [3]	shift in the fluorescence (flow cytometry) ([1]; listed as mutated peptide)	IC50 ([1]; bracketed from 5 and 15 μM inhibition)	15 μM Inhibition (%) ([1]; competitor 15 μM, FITC-labeled reference peptide KVFPKALINK 300 nM, flow cytometry)
ELQRREVYK [peptide originating from the E6 oncoprotein of HPV type 52]	does not exhibit a discernible shift; also recorded: no discernible shift	24.21%	does not elicit positive T-cell responses	HLA-A^*11:01-restricted			
ALQRREVYK [ALQRREVYK]	leftward shift in the fluorescence intensity	44.83%			leftward shift in the fluorescence peak	5 to 15 µM	77.55%
